Laboratory results taken from ChEMBL document CHEMBL1133160, “Molecular modeling of the aldose reductase-inhibitor complex based on the X-ray crystal structure and studies with single-site-directed mutants” (J Med Chem, 2000).

What was measured:
[1] = Inhibitory Activity ratio (IC50 ratio) calculated by Human recombinant aldose reductase wild type against Mutant Aldose reductase (W111Y).
[2] = Inhibitory Activity ratio (IC50 ratio) calculated by Human recombinant aldose reductase wild type against Mutant Aldose reductase (W111A)
[3] = Inhibitory Activity ratio (IC50 ratio) calculated by Human recombinant aldose reductase wild type against Mutant Aldose reductase (W20Y)
[4] = Inhibitory Activity ratio (IC50 ratio) calculated by Human recombinant aldose reductase wild type against Mutant Aldose reductase (W20A).
[5] = target: Aldo-keto reductase family 1 member B1 (Homo sapiens, UniProt P15121); test: Inhibitory Activity against Human recombinant Aldose Reductase (wild type)

SMILES | Ratio [1] | Ratio [2] | Ratio [3] | Ratio [4] | IC50 [5] [nM]
O=C(O)CC1C(=O)N(Cc2ccc(Br)cc2F)C(=O)c2ccc(F)cc21 (stereo not given) | 193 | 120 | 21 | 311 | 227
O=C1CC2(C(=O)N1)C(=O)N(Cc1nc3cc(C(F)(F)F)ccc3s1)C(=O)c1ccc(F)cc12 (stereo not given) | 2 | 19 | 0.1 | 1 | 144
O=C(O)Cc1nn(Cc2ccc(Br)cc2F)c(=O)c2ccccc12 [PONALRESTAT] | 58 | 1770 | 47 | 1770 | 66.5
CN1C(=O)c2ccc(Cl)cc2C2(CC(=O)NC2=O)C1=O (stereo not given) | 324 | > 1280 | 1.5 | 1070 | 78.2
O=C(O)Cn1c(=O)n(Cc2ccc(Br)cc2F)c(=O)c2ccc(Cl)cc21 [ZENARESTAT] | 12 | 786 | 2.5 | 448 | 42.4
O=C1NC(=O)C2(N1)c1cc(F)ccc1-c1ccc(F)cc12 | 1960 | 781 | 48 | 9140 | 54.7
CN1C(=O)c2ccc(F)cc2C2(CC(=O)NC2=O)C1=O (stereo not given) | 773 | 2730 | 3 | 1670 | 73.2
